According to US6559101B2, “N- (5, 7-dimethoxy [1, 2, 4] triazolo [1, 5-a] pyrimidin-2-yl) arylsulfonamide compounds and their use as herbicides” (Dow AgroSciences LLC, priority 2000, dated 2003):

How the values were obtained:
Format in all cases: in vivo
[1] = system: Rox orange sorghum (Sorghum bicolor); assay: Postemergence herbicidal activity; conditions: scored after 2 weeks, 0 no injury, 100 complete kill
In short: (§1)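 Visual injury rating (0 = no injury, 100% = complete kill) taken 2 weeks post-application relative to untreated controls. Compounds applied as foliar spray in an acetone/DMSO-based aqueous carrier with crop oil and surfactant to plants at first or second true leaf stage; 1 ppm corresponds to about 1 g/ha.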

[2] = system: blackgrass (Alopecurus myosuroides); assay: Postemergence herbicidal activity; conditions: scored after 2 weeks, 0 no injury, 100 complete kill
In short: as §1

[3] = system: chickweed (Stellaria media); assay: Postemergence herbicidal activity; conditions: scored after 2 weeks, 0 no injury, 100 complete kill
In short: as §1

[4] = system: cocklebur (Xanthium strumarium); assay: Postemergence herbicidal activity; conditions: scored after 2 weeks, 0 no injury, 100 complete kill
In short: as §1

[5] = system: giant foxtail (Setaria faberi); assay: Postemergence herbicidal activity; conditions: scored after 2 weeks, 0 no injury, 100 complete kill
In short: as §1

[6] = system: lambsquarters (Chenopodium album); assay: Postemergence herbicidal activity; conditions: scored after 2 weeks, 0 no injury, 100 complete kill
In short: as §1

[7] = system: morningglory (Ipomoea hederacea); assay: Postemergence herbicidal activity; conditions: scored after 2 weeks, 0 no injury, 100 complete kill
In short: as §1

[8] = system: pigweed (Amaranthus retroflexus); assay: Postemergence herbicidal activity; conditions: scored after 2 weeks, 0 no injury, 100 complete kill
In short: as §1

[9] = system: velvetleaf (Abutilion theophrasti); assay: Postemergence herbicidal activity; conditions: scored after 2 weeks, 0 no injury, 100 complete kill
In short: as §1

viola (Viola tricolor) = assay: Postemergence herbicidal activity; conditions: scored after 2 weeks, 0 no injury, 100 complete kill
In short: as §1

[10] = system: wild buckwheat (Polygonum convolvulus); assay: Postemergence herbicidal activity; conditions: scored after 2 weeks, 0 no injury, 100 complete kill
In short: as §1

wild oats (Avena fatua) [11] = assay: Postemergence herbicidal activity; conditions: scored after 2 weeks, 0 no injury, 100 complete kill
In short: as §1

[12] = system: Rox orange sorghum (Sorghum bicolor); assay: Preemergence herbicidal activity; conditions: scored after 3 weeks, 0 no injury, 100 complete kill or no germination
In short: (§2)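 Visual rating 3 weeks after treatment, 0-100% injury versus untreated pots, where 100 means complete kill or no germination. Soil of seeded pots was sprayed preemergence with aqueous Tween 155 dilutions of acetone/DMSO stocks, up to 4.48 kg/ha. Plants were grown in a greenhouse at about 23-29 °C day/22-28 °C night with ~15 h light.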

[13] = system: barnyardgrass (Echinochloa crus-galli); assay: Preemergence herbicidal activity; conditions: scored after 3 weeks, 0 no injury, 100 complete kill or no germination
In short: as §2

[14] = system: blackgrass (Alopecurus myosuroides); assay: Preemergence herbicidal activity; conditions: scored after 3 weeks, 0 no injury, 100 complete kill or no germination
In short: as §2

[15] = system: cocklebur (Xanthium strumarium); assay: Preemergence herbicidal activity; conditions: scored after 3 weeks, 0 no injury, 100 complete kill or no germination
In short: as §2

[16] = system: crabgrass (Digitaria sanguinalis); assay: Preemergence herbicidal activity; conditions: scored after 3 weeks, 0 no injury, 100 complete kill or no germination
In short: as §2

[17] = system: giant foxtail (Setaria faberi); assay: Preemergence herbicidal activity; conditions: scored after 3 weeks, 0 no injury, 100 complete kill or no germination
In short: as §2

[18] = system: lambsquarters (Chenopodium album); assay: Preemergence herbicidal activity; conditions: scored after 3 weeks, 0 no injury, 100 complete kill or no germination
In short: as §2

[19] = system: morningglory (Ipomoea hederacea); assay: Preemergence herbicidal activity; conditions: scored after 3 weeks, 0 no injury, 100 complete kill or no germination
In short: as §2

[20] = system: pigweed (Amaranthus retroflexus); assay: Preemergence herbicidal activity; conditions: scored after 3 weeks, 0 no injury, 100 complete kill or no germination
In short: as §2

[21] = system: velvetleaf (Abutilion theophrasti); assay: Preemergence herbicidal activity; conditions: scored after 3 weeks, 0 no injury, 100 complete kill or no germination
In short: as §2

wild oats (Avena fatua) [22] = assay: Preemergence herbicidal activity; conditions: scored after 3 weeks, 0 no injury, 100 complete kill or no germination
In short: as §2

[23] = system: wild poinsettia (Euphorbia heterophylla); assay: Preemergence herbicidal activity; conditions: scored after 3 weeks, 0 no injury, 100 complete kill or no germination
In short: as §2

SMILES: COc1cc(OC)n2nc(NS(=O)(=O)c3c(OC(C)C)cccc3C(F)(F)F)nc2n1 [Compound 11]
- Postemergence herbicidal activity SORBI ([1]; 62.5 ppm): 50%
- Postemergence herbicidal activity ALOMY ([2]; 62.5 ppm): 60%
- Postemergence herbicidal activity STEME ([3]; 62.5 ppm): 95%
- Postemergence herbicidal activity XANST ([4]; 62.5 ppm): 100%
- Postemergence herbicidal activity SETFA ([5]; 62.5 ppm): 100%
- Postemergence herbicidal activity CHEAL ([6]; 62.5 ppm): 100%
- Postemergence herbicidal activity IPOHE ([7]; 62.5 ppm): 80%
- Postemergence herbicidal activity AMARE ([8]; 62.5 ppm): 100%
- Postemergence herbicidal activity ABUTH ([9]; 62.5 ppm): 100%
- Postemergence herbicidal activity VIOTR (viola (Viola tricolor); 62.5 ppm): 90%
- Postemergence herbicidal activity POLCO ([10]; 62.5 ppm): 100%
- Postemergence herbicidal activity AVEFA (wild oats (Avena fatua) [11]; 62.5 ppm): 30%
- Preemergence herbicidal activity SORBI ([12]; 17.5 g/Ha): 90%
- Preemergence herbicidal activity ECHCG ([13]; 17.5 g/Ha): 100%
- Preemergence herbicidal activity ALOMY ([14]; 17.5 g/Ha): 100%
- Preemergence herbicidal activity XANST ([15]; 17.5 g/Ha): 90%
- Preemergence herbicidal activity DIGSA ([16]; 17.5 g/Ha): 80%
- Preemergence herbicidal activity SETFA ([17]; 17.5 g/Ha): 100%
- Preemergence herbicidal activity CHEAL ([18]; 17.5 g/Ha): 100%
- Preemergence herbicidal activity IPOHE ([19]; 17.5 g/Ha): 98%
- Preemergence herbicidal activity AMARE ([20]; 17.5 g/Ha): 100%
- Preemergence herbicidal activity ABUTH ([21]; 17.5 g/Ha): 100%
- Preemergence herbicidal activity AVEFA (wild oats (Avena fatua) [22]; 17.5 g/Ha): 60%
- Preemergence herbicidal activity EPHHL ([23]; 17.5 g/Ha): 90%

SMILES: COc1cc(OC)n2nc(NS(=O)(=O)c3c(C(F)(F)F)ccnc3F)nc2n1 [Compound 16]
- Postemergence herbicidal activity SORBI ([1]; 125 ppm): 50%
- Postemergence herbicidal activity ALOMY ([2]; 125 ppm): 60%
- Postemergence herbicidal activity STEME ([3]; 125 ppm): 60%
- Postemergence herbicidal activity XANST ([4]; 125 ppm): 0%
- Postemergence herbicidal activity SETFA ([5]; 125 ppm): 75%
- Postemergence herbicidal activity CHEAL ([6]; 125 ppm): 40%
- Postemergence herbicidal activity IPOHE ([7]; 125 ppm): 20%
- Postemergence herbicidal activity AMARE ([8]; 125 ppm): 75%
- Postemergence herbicidal activity ABUTH ([9]; 125 ppm): 10%
- Postemergence herbicidal activity VIOTR (viola (Viola tricolor); 125 ppm): 50%
- Postemergence herbicidal activity POLCO ([10]; 125 ppm): 20%
- Postemergence herbicidal activity AVEFA (wild oats (Avena fatua) [11]; 125 ppm): 50%
- Preemergence herbicidal activity SORBI ([12]; 140 g/Ha): 40%
- Preemergence herbicidal activity ECHCG ([13]; 140 g/Ha): 0%
- Preemergence herbicidal activity ALOMY ([14]; 140 g/Ha): 40%
- Preemergence herbicidal activity XANST ([15]; 140 g/Ha): 40%
- Preemergence herbicidal activity DIGSA ([16]; 140 g/Ha): 0%
- Preemergence herbicidal activity SETFA ([17]; 140 g/Ha): 10%
- Preemergence herbicidal activity CHEAL ([18]; 140 g/Ha): 20%
- Preemergence herbicidal activity IPOHE ([19]; 140 g/Ha): 0%
- Preemergence herbicidal activity AMARE ([20]; 140 g/Ha): 85%
- Preemergence herbicidal activity ABUTH ([21]; 140 g/Ha): 20%
- Preemergence herbicidal activity AVEFA (wild oats (Avena fatua) [22]; 140 g/Ha): 30%
- Preemergence herbicidal activity EPHHL ([23]; 140 g/Ha): 0%

SMILES: COc1cc(OC)n2nc(NS(=O)(=O)c3cc(Cl)ccc3OCCF)nc2n1 [Compound 13]
- Postemergence herbicidal activity SORBI ([1]; 31.3 ppm): 90%
- Postemergence herbicidal activity ALOMY ([2]; 31.3 ppm): 85%
- Postemergence herbicidal activity STEME ([3]; 31.3 ppm): 85%
- Postemergence herbicidal activity XANST ([4]; 31.3 ppm): 90%
- Postemergence herbicidal activity SETFA ([5]; 31.3 ppm): 90%
- Postemergence herbicidal activity CHEAL ([6]; 31.3 ppm): 70%
- Postemergence herbicidal activity IPOHE ([7]; 31.3 ppm): 70%
- Postemergence herbicidal activity AMARE ([8]; 31.3 ppm): 95%
- Postemergence herbicidal activity ABUTH ([9]; 31.3 ppm): 70%
- Postemergence herbicidal activity VIOTR (viola (Viola tricolor); 31.3 ppm): 80%
- Postemergence herbicidal activity POLCO ([10]; 31.3 ppm): 80%
- Postemergence herbicidal activity AVEFA (wild oats (Avena fatua) [11]; 31.3 ppm): 75%
- Preemergence herbicidal activity SORBI ([12]; 35 g/Ha): 95%
- Preemergence herbicidal activity ECHCG ([13]; 35 g/Ha): 80%
- Preemergence herbicidal activity ALOMY ([14]; 35 g/Ha): 95%
- Preemergence herbicidal activity XANST ([15]; 35 g/Ha): 50%
- Preemergence herbicidal activity DIGSA ([16]; 35 g/Ha): 100%
- Preemergence herbicidal activity SETFA ([17]; 35 g/Ha): 95%
- Preemergence herbicidal activity CHEAL ([18]; 35 g/Ha): 95%
- Preemergence herbicidal activity IPOHE ([19]; 35 g/Ha): 50%
- Preemergence herbicidal activity AMARE ([20]; 35 g/Ha): 95%
- Preemergence herbicidal activity ABUTH ([21]; 35 g/Ha): 60%
- Preemergence herbicidal activity AVEFA (wild oats (Avena fatua) [22]; 35 g/Ha): 85%
- Preemergence herbicidal activity EPHHL ([23]; 35 g/Ha): 50%
